pEC50: −log10 of the molar value. Read-outs that look alike come from different tables or passages of the source.
How the values were obtained:
ERα [1] = settings: cited from earlier work
ERα [2] = assay: Literature ERα reporter gene assays (comparison); format: cell-based; settings: for EC10, approx.: in M (unit assumed)
Protocol: S5.4: Comparison with literature data for ERα reporter gene assays
To improve data comparability with our own results we converted reported EC₅₀ to EC₁₀ by dividing by 9, which is the ratio for log-logistic concentration-response curves with a hillslope of 1 (Figure S9a). Additionally, REPBPA values were calculated to enable a more consistent evaluation. Methodological differences between studies must be considered, as Reiniger et al.24 used the YES assay, while Goksøyr et al.25 applied ERα from fish (Figure S9b).
Cyan symbols highlight the ER-UAS-bla GripTite (this study and Tox21GenBLA).
(1 picture or pasted object on this page, not shown here)

PPARγ = test system: PPARγ; design: method as in Crosthwait et al. 2025; Sun et al. 2025; settings: ref Crosthwait et al. 2025; Sun et al. 2025; cited from earlier work
[3] = Octanol-water partition constant (log Kow) measurement, Sirius T3 potentiometric log P; format: physicochemical; settings: experimental, this study
Protocol: Physicochemical properties provide input parameters for the baseline toxicity model. Acidity constants (pK a) and octanol–water partition constants of the neutral species (K ow) were measured with a Sirius T instrument from Pion Inc. (Sussex, UK) (Text S1.2 and Table S1). A detailed description of the pK a and K ow measurements can be found in literature. , […]
S1.2: pKa and log Kow measurements […]
titrator (Pion Inc., Sussex, U.K.). […]
UV absorbance. For log Kow measurement, approximately 1 mg of test chemical was added to a sample vial and the measurement was done automatically via the potentiometric log P protocol. Briefly, each compound is titrated thrice in an immiscible biphasic system of octanol and phosphate buffer solution and pH is continuously recorded. The shift in p Ka -values was used to estimate the log Kow values.2, 3 Data processing was performed with Sirius T3 Refine software (version 2.0.0.0.), and the final p Ka and log Kow values were calculated as the average of three titrations. To ensure reproducibility, measurements were conducted on at least two

Tox21 assays = assay: Re-evaluated Tox21 data (Adamovsky et al.), REPBPA and SRbaseline; settings: for SRbaseline: Specificity Ratio;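 for all read-outs here: published Tox21 results reanalysed with a revised model predicting baseline toxicity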
Excerpt: We also reanalyzed the Tox21 data of Adamovsky et al. with the updated baseline toxicity prediction model (Table S2).

[4] = test system: HEK293H, HEK293T, H4IIe, MCF7 and SH-SY5Y cells; settings: for cytotoxicity,median REPBPA,IC10: median IC10 relative to BPA; for IC10,Median (M): median cytotoxicity of all cell lines; for IC10, median: median cytotoxicity over all cell lines
Protocol: Cell culture conditions and bioassay protocols including response detection are provided in Text S2.1–2.4 and Table S3. − Cell viability was determined from cell confluency using an IncuCyte S3 Live-Cell Analysis System (Sartorius AG, Essen, Germany) before and after exposure, except for SH-SY5Y cells (live–dead staining with Nuclear Green LcS1 and propidium iodide, Abcam, UK). For metabolic activation experiments, cell viability was assessed using the ToxBLAzer DualScreen Kit (Thermo Fisher Scientific) to capture the remaining toxicity in ERα-UAS-bla GripTite after treatment with the aCYP catalyst (details in Text S2.4).
For ARE, the concentration that triggered an induction ratio of 1.5 (ECIR1.5) was used as the benchmark value, as detailed in Text S2.5. IC10 values also served as a threshold for data analysis in all assays; only concentrations below IC10 were considered when deriving EC10 or ECIR1.5.
TR indicates whether the cytotoxicity is triggered by specific toxicity mechanisms (TR ≥ 10) or not (0.1< TR< 10). 3 TR=IC10,baseline/IC10 We measured the cytotoxicity of BPA and its alternatives in HEK293H (PPARγ), HEK293T (ERα), H4IIe (AhR CALUX), MCF7 (ARE/MMP), and differentiated SH-SY5Y cells (Table S6). […]
medium, supplemented with 2% B-27 Supplement and 2 mM GlutaMAX Supplement. SH - SY5Y cells were differentiated with 10 µM all-trans retinoic acid prior to the assay.
S2.2: Cell Seeding and Incubation. For all bioassays, cell suspensions in the respective assay medium were dispensed into each well of 384-well plates using a MultiFlo Dispenser (Biotek, (now Agilent), Winooski, VT, U.S.). After seeding, the plates were incubated at 37° C and 5% CO₂ for […]. The final cell densities and plate types were as follows: Black poly-D-lysine […]
6500 cells/well, ERα: 5000 cells/well. White 384-well plates with a clear bottom (Product No.
NYC, U.S.) for AhR: 3250 cells/well. Black Collagen I coated plates were used (Product No.
S2.3: Chemical Dosing and Assay Analysis Procedures. The dosing procedure and high-throughput assay workflow have been described in detail before. 9 The dosing concentrations […]
Stock solutions were then either added directly to the respective cell culture medium or evaporated under nitrogen, followed by replenishment with fresh medium. The final solvent content in each well was kept below 1% for methanol, 0% for acetonitrile.
Dosing plates were prepared as 11 -step serial dilutions using a Hamilton Microlab Star robotic system (Hamilton, Bonaduz, Switzerland), and chemicals were dosed in duplicates by transferring 10 μL twice from the dosing plates to the cell plates . After quantifying cell confluency as described in S2. 4., the exposed cells were incubated at 37° C and 5% CO₂ for an additional 24 h. All chemicals were tested in all assays with at least three independent […]
S2.4: Cell Viability Measurement s and bioanalytical protocols . The confluency as a measure of cell viability was determined with an IncuCyte S3 Live -Cell Analysis System (Sartorius AG, Essen, Germany). With this method the confluency of cells in a microscopy image are normalized to control wells without cells and compared before and after 24 hours of exposure.
This method has been described previously 13. Cell viability of SH-SY5Y cells was measured […]
propidium iodide (PI, Abcam, Cambridge, U.K.).14 Nuclear Green LCS1 is a membrane-permeable dye that stains the nuclei of all cells, whereas PI only enters cells with compromised membrane integrity (non-viable cells). After staining, live cells show green nuclei without red fluorescence, while dead cells display both green and red nuclear fluorescence due to PI […]
intercalation. Cell viability was calculated as the proportion of green-only nuclei relative to the […]
For experiments with the preceding aCYP activation, ERα cell viability was additionally calculated from the readout of the ToxBLAzer reagent. The ToxBLAzer assay was conducted following the manufacturer's instructions (Thermo Fisher, Waltham, MA, U.S.).13 Fluorescence

[5] = estrogen receptor from Atlantic cod (Gadus morhua), ref Goksøyr et al 2024
[6] = Atlantic cod estrogen receptor, approximated from literature EC50, ref Goksøyr et al 2024
[7] = Atlantic cod estrogen receptor, ref Goksøyr et al 2024
[8] = approximated from literature EC50, ref Pelch et al 2019
[9] = approximated from literature EC50, ref Reiniger et Oehlmann 2024
[10] = approximated from literature values, ref Kojima et al 2019
[11] = relative estrogenic potency vs BPA, ref Kojima et al 2019
[12] = relative estrogenic potency vs BPA, ref Pelch et al 2019
[13] = relative estrogenic potency vs BPA, ref Reiniger et Oehlmann 2024
[14] = ATG_NRF2_ARE_CIS_up, Relative Effect Potency
[15] = TOX21_AR_LUC_MDAKB2_Antagonist_0,5nM_R1881, Relative Effect Potency
[16] = TOX21_AR_LUC_MDAKB2_Antagonist_0,5nM_R1881
[17] = TOX21_CAR_Agonist, Relative Effect Potency
[18] = TOX21_CAR_Antagonist, Relative Effect Potency
[19] = TOX21_PPARg_BLA_antagonist_ratio
[20] = Tox21BLA, ref Adamovsky et al. 2024
[21] = Tox21Luc, ref Adamovsky et al. 2024

| SMILES | pEC50 (ERα [1]; [5]) | pEC50 (ERα [1]; ref Kojima et al 2019) | pEC50 (ERα [1]; ref Pelch et al 2019) | Efficacy % (ERα [1]; ref Pelch et al 2019) [%] | pEC50 (ERα [1]; ref Reiniger et Oehlmann 2024) | Efficacy % (ERα [1]; ref Reiniger et Oehlmann 2024) [%] | EC10, approx. (ERα [2]; [6]) | REPBPA (ERα [2]; [7]) | EC10, approx. (ERα [2]; [8]) | EC10, approx. (ERα [2]; [9]) | EC10, approx. (ERα [2]; [10]) | REPBPA (ERα [2]; [11]) | REPBPA (ERα [2]; [12]) | REPBPA (ERα [2]; [13]) | PPARγ transactivation reported in the literature (PPARγ) | log Kow used [3] | REPBPA (Tox21 assays; [15]) | SRbaseline (Tox21 assays; [16]) | REPBPA (Tox21 assays; [17]) | SRbaseline (Tox21 assays; TOX21_CAR_Agonist) | further results |
| --- | --- | --- | --- | --- | --- | --- | --- | --- | --- | --- | --- | --- | --- | --- | --- | --- | --- | --- | --- | --- | --- |
| CC(C)(c1ccc(O)cc1)c1ccc(O)cc1 [BPA, 4,4'-(Propane-2,2-diyl)diphenol, reference compound] | 5.72 | 6.48 | 5.92 | 110.30 | 5.65 | 9.42E+01 | ~2.11E-07 | 1.00E+00 | ~1.33E-07 | ~2.51E-07 | ~3.65E-08 | 1.00E+00 | 1.00E+00 | 1.00E+00 | No agonism was detected | 4.25 | 1.00 | 32.80 | 1.00 | 57.94 | REPBPA (Tox21 assays; [14]): 1.00; SRbaseline (Tox21 assays; ATG_NRF2_ARE_CIS_up): 10.51; REPBPA (Tox21 assays; [18]): 1.00; SRbaseline (Tox21 assays; TOX21_CAR_Antagonist): 145.9; SRbaseline (Tox21 assays; [19]): 10.39; REPBPA (Tox21 assays; [20]): 1.00E+00; REPBPA (Tox21 assays; [21]): 1.00E+00 |
| O=S(=O)(c1ccc(O)cc1)c1ccc(OCc2ccccc2)cc1 [BPS-MPE, 4-[4-(benzyloxy)benzenesulfonyl]phenol] | – | – | – | 9.40 | – | – | – | – | – | – | – | – | – | – | significant PPARγ activation | 4.28 | – | – | – | – | cytotoxicity,median REPBPA,IC10 [4]: 0.62; IC10,Median (M) [4]: 1.12 × 10^–4 M; IC10, median [4]: 112 µM |
| CCC(C)(c1ccc(O)cc1)c1ccc(O)cc1 [BPB, 4,4'-(Butane-2,2-diyl)diphenol] | 5.80 | 7.13 | 6.49 | 115.70 | 5.77 | 9.23E+01 | ~1.78E-07 | 1.19E+00 | ~3.56E-08 | ~1.87E-07 | ~1.15E-08 | 3.17E+00 | 3.75E+00 | 1.35E+00 | No agonism was detected | 3.72 | 0.94 | 18.87 | 1.20 | 42.52 | cytotoxicity,median REPBPA,IC10 [4]: 1.93; IC10,Median (M) [4]: 3.62 × 10^–5 M; IC10, median [4]: 36.2 µM; REPBPA (Tox21 assays; [14]): 17.53; SRbaseline (Tox21 assays; ATG_NRF2_ARE_CIS_up): 112.9; REPBPA (Tox21 assays; [18]): 7.88; SRbaseline (Tox21 assays; TOX21_CAR_Antagonist): 704.7; REPBPA (Tox21 assays; [20]): 3.63E+00; REPBPA (Tox21 assays; [21]): 1.63E+00 |
| Oc1ccc(C(c2ccc(O)cc2)(C(F)(F)F)C(F)(F)F)cc1 [BPAF, 4,4'-(1,1,1,3,3,3-Hexafluoropropane-2,2-diyl)diphenol] | 6.64 | 6.41 | 6.89 | 91.50 | 6.36 | 8.21E+01 | ~2.56E-08 | 8.26E+00 | ~1.44E-08 | ~4.82E-08 | ~4.30E-08 | 8.49E-01 | 9.23E+00 | 5.21E+00 | No agonism was detected | 4.72 | 0.83 | 22.15 | 0.26 | 12.10 | REPBPA,ERα reported in the literature (ERα [1]; ref Text S5.4, Tables S2 and S7): 3–5; cytotoxicity,median REPBPA,IC10 [4]: 3.07; IC10,Median (M) [4]: 2.28 × 10^–5 M; IC10, median [4]: 22.8 µM; REPBPA (Tox21 assays; [18]): 1.29; SRbaseline (Tox21 assays; TOX21_CAR_Antagonist): 153.1; SRbaseline (Tox21 assays; [19]): 11.28; REPBPA (Tox21 assays; [20]): 2.86E+00; REPBPA (Tox21 assays; [21]): 1.23E+00 |

Source: paper PMC12392461, “Beyond Estrogenicity: A Comparative Assessment of Bisphenol A and Its Alternatives in In Vitro Assays Questions Safety of Replacements” (Environmental Science & Technology, 2025)
